The values below come from patent US9951044B2, “Quinazoline derivatives and their use as DNA methyltransferase inhibitors” (PIERRE FABRE MEDICAMENT, priority 2013, dated 2018).

As usually defined, the inhibition is the percentage by which the read-out fell short of the control. What is called EC50 is the concentration that produces a half-maximal response. A higher EC50 goes with lower potency in that assay.

In assay [1] the target is T1, His-DNMT1 (182 kDa, human) (Homo sapiens, UniProt P26358).
T1 construct: His; made in house
Description: DNMT1 assay ([methyl-3H] SAM Flashplate). Type of assay: biochemical. The following applies: for inhibition at 100 µM: compound at 100 μM, read-out: DNMT1 (% of inhibition) 100 μM; for inhibition at 32 µM: compound at 32 μM, read-out: DNMT1 (% of inhibition) 32 μM. The method, then:
His-DNMT1 (182 kDa, human) was cloned, expressed and purified as described in Halby et al. (ChemBioChem 2012, 13, 157-65). The reaction was performed in a 10 μL total reaction volume in low volume NBS™ 384-well microplates (Corning), containing the tested compound (up to 1% DMSO), 1 μM of a SAM/[methyl-^3H] SAM (3 TBq/mmol, PerkinElmer) mix in a ratio of 3-to-1 (isotopic dilution 1*:3), 0.3 μM of biotinylated hemimethylated DNA duplex (5′-GATmCGCmCGATGmCGmCGAATmCGmCGAT mCGATGmCGAT-3′ and BIOT-5′-[…] ATC-3′), and 90 nM of DNMT1 in methylation buffer (20 mM HEPES pH 7.2, 1 mM EDTA, 50 mM KCl, 25 μg/mL BSA). The reaction was incubated at 37° C. for 2 hours. 8 μL are then transferred into a streptavidin 96-well scintillant coated Flashplate™ (PerkinElmer) containing 190 μL of 20 μM SAH in 50 mM Tris-HCl pH 7.4. The Flashplate™ was agitated at room temperature for 1 hour, washed three times with 200 μL of 0.05% Tween®-20 in 50 mM Tris-HCl pH 7.4, and read in 200 μL of 50 mM Tris-HCl pH 7.4 on TopCount NXT (PerkinElmer).

Assay [2] has as its target T2, human C-terminal DNMT3A (a.a. 623-908) (Homo sapiens, UniProt Q9Y6K1).
T2 construct: The human C-terminal DNMT3A (a.a. 623-908); made in house
Description: DNMT3A assay (restriction-based fluorescence). In kind it is biochemical. The following applies: for inhibition at 32 µM: compound at 32 μM, read-out: DNMT3A (% of inhibition) 32 μM; for inhibition at 10 µM: compound at 10 μM, read-out: DNMT3A (% of inhibition) 10 μM; for inhibition at 20 µM: compound at 20 μM; for EC50: concentration range in triplicates. The text has this:
DNMT3A enzyme inhibition was adapted from the restriction-based fluorescence assay protocol described in Ceccaldi et al. (ChemBioChem 2011, 12, 1337-45). Briefly, a 5′-labelled biotin oligonucleotide is hybridized to its complementary strand labelled with 6-carboxyfluorescein at the 3′-end into a 384 well microplate (black Optiplates; Perkin Elmer) pre-coated with avidin. The duplex contains a unique CpG site overlapping with a restriction site of a methylation sensitive restriction enzyme. The human C-terminal DNMT3A (a.a. 623-908), produced as described in Gros et al. (Nucleic Acids Research 2013 Aug. 25), was added in each well (200 ng/well) and mixed with the chemical compounds at desired concentrations and freshly prepared AdoMet (20 μM final concentration) to start the reaction in a total volume of 50 μL. After 1 hour incubation at 37° C. each well were washed three times with PBS, Tween-20 0.05%, NaCl (500 mM) and three more times with PBST. Specific fluorescent signals were detected with the methylation-sensitive restriction enzyme HpyCH4IV (NEB) as described and measured on a Perkin Elmer Envision detector. The percentage of inhibition is reported. The formula used to calculate the percentage of inhibition is [(X−Y)/X]×100, where X is the signal determined in the absence of the inhibitor and Y is the signal obtained in the presence of the inhibitor. The concentration at which 50% of efficacy of inhibition is observed (EC50) was determined by analysis of a concentration range of the tested compound in triplicates. The non-linear regression fittings with sigmoidal dose-response (variable slope) were performed with GraphPad Prism 4.03 (GraphPad Software).

The test system of assay [3] is KG-1 human leukemia cells. Description: Anti-proliferative activity on KG-1 cells (ATPLite). In kind it is cell-based. The following applies: KG-1, 96 h, treatment days 1-3, viability day 4, mean of at least two experiments, 95% confidence interval in brackets. The method, then:
(§1) KG-1 and Karpas299 human leukemia cells were obtained from the ATCC (USA) and cultivated in RPMI 1640 medium (with HEPES and Glutamine, BE12-115F, Lonza, France) supplemented with, respectively, 20% and 15% foetal calf serum (Lonza, France), at 37° C. and under 5% CO2. To measure the anti-proliferative properties of tested molecules, 2×10^4 cells are seeded at day 0 in a 96 wells plate. The compounds to be tested, stored at −20° C. as 10^−2 M stock solution in 100% DMSO, are freshly diluted on day 1 in RPMI 1640 medium, before adding a dose range of 3.2 nM to 10 μM to the cells. This treatment is repeated on day 2 and 3, and on day 4 cell viability is assessed using the ATPLite kit from Perkin (ATPlite 1 Step Luminescence Assay System, ref 3016739), following the provider instructions. The raw data are analyzed with GraphPad Prism software (v4.03) to generate EC50 values corresponding to the compound concentrations giving 50% reduction in cell viability. The values presented are the mean results of at least two independent experiments.

The test system of assay [4] is Karpas299 human leukemia cells. Description: Anti-proliferative activity on Karpas 299 cells (ATPLite). In kind it is cell-based. The following applies: KARPAS-299, 96 h, treatment days 1-3, viability day 4, mean of at least two experiments, 95% confidence interval in brackets. The method, then: as §1
(In general: In ATP-based viability assays light output follows the ATP content of the culture.)

T2 sequence (Q9Y6K1 627-912 limits assumed): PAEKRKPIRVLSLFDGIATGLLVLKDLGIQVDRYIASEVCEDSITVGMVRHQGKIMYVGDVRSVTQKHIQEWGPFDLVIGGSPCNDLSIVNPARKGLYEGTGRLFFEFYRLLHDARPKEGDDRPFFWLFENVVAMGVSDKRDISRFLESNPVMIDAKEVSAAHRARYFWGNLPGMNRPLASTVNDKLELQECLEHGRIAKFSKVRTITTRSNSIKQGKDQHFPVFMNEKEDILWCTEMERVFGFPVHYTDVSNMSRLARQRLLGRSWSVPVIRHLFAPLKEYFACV
T1 sequence (P26358 whole entry): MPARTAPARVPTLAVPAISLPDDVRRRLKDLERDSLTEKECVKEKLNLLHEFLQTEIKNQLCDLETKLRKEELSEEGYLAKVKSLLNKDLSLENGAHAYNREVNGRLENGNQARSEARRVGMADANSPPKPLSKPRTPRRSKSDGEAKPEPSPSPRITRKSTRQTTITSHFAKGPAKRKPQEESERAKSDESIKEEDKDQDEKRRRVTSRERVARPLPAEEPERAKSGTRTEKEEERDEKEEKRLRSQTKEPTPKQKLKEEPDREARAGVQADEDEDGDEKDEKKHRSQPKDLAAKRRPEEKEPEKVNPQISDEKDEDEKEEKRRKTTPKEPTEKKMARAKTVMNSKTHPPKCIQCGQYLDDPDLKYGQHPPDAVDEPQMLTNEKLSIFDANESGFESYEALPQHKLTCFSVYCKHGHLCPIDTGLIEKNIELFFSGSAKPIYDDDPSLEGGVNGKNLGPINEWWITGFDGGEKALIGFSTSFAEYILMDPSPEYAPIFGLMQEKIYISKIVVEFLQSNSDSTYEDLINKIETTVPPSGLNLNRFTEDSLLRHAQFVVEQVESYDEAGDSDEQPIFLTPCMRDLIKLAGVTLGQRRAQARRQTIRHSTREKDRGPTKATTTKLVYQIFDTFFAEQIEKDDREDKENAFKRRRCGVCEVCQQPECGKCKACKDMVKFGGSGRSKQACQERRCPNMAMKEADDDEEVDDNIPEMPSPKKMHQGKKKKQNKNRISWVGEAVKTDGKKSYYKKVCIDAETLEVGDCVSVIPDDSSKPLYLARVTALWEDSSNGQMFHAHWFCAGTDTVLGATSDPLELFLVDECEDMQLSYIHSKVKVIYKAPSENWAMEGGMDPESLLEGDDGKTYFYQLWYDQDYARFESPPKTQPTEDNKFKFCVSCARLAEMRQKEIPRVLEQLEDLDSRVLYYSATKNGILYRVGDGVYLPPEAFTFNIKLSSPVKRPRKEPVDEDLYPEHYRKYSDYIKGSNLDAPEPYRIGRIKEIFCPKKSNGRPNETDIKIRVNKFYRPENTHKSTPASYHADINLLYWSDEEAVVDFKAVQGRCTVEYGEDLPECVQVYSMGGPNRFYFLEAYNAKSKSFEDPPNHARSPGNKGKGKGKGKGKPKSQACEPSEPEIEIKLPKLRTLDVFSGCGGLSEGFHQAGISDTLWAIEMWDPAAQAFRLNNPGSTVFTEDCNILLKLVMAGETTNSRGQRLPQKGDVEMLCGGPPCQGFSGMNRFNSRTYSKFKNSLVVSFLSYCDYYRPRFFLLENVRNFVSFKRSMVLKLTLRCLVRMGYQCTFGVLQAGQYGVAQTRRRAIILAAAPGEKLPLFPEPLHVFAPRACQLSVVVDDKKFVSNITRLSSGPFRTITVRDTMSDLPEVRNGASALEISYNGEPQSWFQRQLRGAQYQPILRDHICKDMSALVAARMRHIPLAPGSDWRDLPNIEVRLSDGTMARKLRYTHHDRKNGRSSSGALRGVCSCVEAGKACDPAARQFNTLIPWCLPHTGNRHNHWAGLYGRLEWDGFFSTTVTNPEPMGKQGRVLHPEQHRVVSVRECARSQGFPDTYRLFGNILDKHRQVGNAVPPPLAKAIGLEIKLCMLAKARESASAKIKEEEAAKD

In the case of `c1ccc(CCCNc2ncnc3cc(OCC4CCN(CCNc5ccnc6ccccc56)C4)ccc23)cc1` (centres unmarked) [Compound AM, 4-((3-phenylpropyl)amino)-7-((1-(2-(quinolin-4-ylamino)ethyl)pyrrolidin-3-yl)methoxy)quinazoline], the inhibition at 100 µM in assay [1] turned out to be 100%. Further, in assay [2], the inhibition at 32 µM worked out at 81%.
Regarding `c1ccc(CCCNc2ncnc3cc(OCCCNCCCNc4ccnc5ccccc45)ccc23)cc1` [Compound A], in assay [1], the inhibition at 100 µM came to 97%. In assay [2], the inhibition at 10 µM amounted to 60%; 20 µM produced 76% inhibition; the inhibition at 32 µM is 85%; the midpoint of the response, the EC50, lay at 10 µM.
As to `c1ccc(CCCNc2ncnc3cc(OCCCNCCCCNc4ccnc5ccccc45)ccc23)cc1` [Compound B], the inhibition at 100 µM in assay [1] was determined as 86%. Besides, in assay [2], the inhibition at 20 µM worked out at 67%.
For `c1ccc(CCCNc2ncnc3cc(OCCCNCCNc4ccnc5ccccc45)ccc23)cc1` [Compound F, 7-(3-((2-(quinolin-4-ylamino)ethyl)amino)propyloxy)-4-((3-phenylpropyl)amino)quinazoline], the inhibition at 100 µM in assay [1] came out at 90%. For the same compound, in assay [2], the inhibition at 10 µM worked out at 59%, testing at 20 µM gave an inhibition of 76%, the inhibition at 32 µM amounted to 87% and it took 10 µM to reach a half-maximal effect (EC50).
Consider `CCCNc1ncnc2cc(OCC3CCN(CCNc4ccnc5ccccc45)CC3)ccc12` [Compound H, 4-propylamino-7-((1-(2-(quinolin-4-ylamino)ethyl)piperidin-4-yl)methoxy)quinazoline], for which, in assay [1], the inhibition at 100 µM came to 94.9%. In addition, in assay [2], the inhibition at 10 µM came out at 28%, the inhibition at 20 µM was determined as 44% and the inhibition at 32 µM is 69%.
The like results for `Nc1ncnc2cc(OCC3CCN(CCNc4ccnc5ccccc45)CC3)ccc12` [Compound I, 4-amino-7-((1-(2-(quinolin-4-ylamino)ethyl)piperidin-4-yl)methoxy)quinazoline] were, in that order, 99.3%, 16%, 32% and 68%.
The like results for `c1ccc(CCCNc2ncnc3cc(OCC4CCN(CCNc5ccncc5)CC4)ccc23)cc1` [Compound J, 4-(3-phenylpropylamino)-7-((1-(2-(pyridin-4-ylamino)ethyl)piperidin-4-yl)methoxy)quinazoline] were, in that order, 33.7%, 47%, 65% and 72%.
On to `O=c1c2ccc(OCC3CCN(CCNc4ccnc5ccccc45)CC3)cc2ncn1CCNc1ccnc2ccccc12` [Compound M], for which, in assay [1], the inhibition at 32 µM came to 100% and the inhibition at 100 µM was 100%. In assay [2], the inhibition at 10 µM is 89%, the inhibition at 32 µM was determined as 91% and the 50% effective concentration (EC50) turned out to be 1.1 µM. The compound also came in with a concentration for a half-maximal effect (EC50) in assay [3] of 1.3 µM. The compound also displayed a 50% effective concentration (EC50) in assay [4] of 0.7 µM.
With `c1ccc(-c2ccc(CNc3ncnc4cc(OCC5CCN(CCNc6ccnc7ccccc67)CC5)ccc34)cc2)cc1` [Compound N, 4-([1,1′-biphenyl]-4-ylmethylamino)-7-((1-(2-(quinolin-4-ylamino)ethyl)piperidin-4-yl)methoxy)quinazoline], in assay [1], the inhibition at 32 µM came out at 24% and the inhibition at 100 µM stood at 69%. In assay [2], the inhibition at 10 µM is 86% and the inhibition at 32 µM was determined as 83%. In assay [3], this compound came in with a half-maximal effective concentration (EC50) of 0.4 µM.
As to `c1ccc(CCNc2ncnc3cc(OCC4CCN(CCNc5ccnc6ccccc56)CC4)ccc23)cc1` [Compound O, 4-(3-phenethylamino)-7-((1-(2-(quinolin-4-ylamino)ethyl)piperidin-4-yl)methoxy)quinazoline], in assay [1], the inhibition at 32 µM came to 38% and the inhibition at 100 µM turned out to be 98.4%. In assay [2], the inhibition at 10 µM stood at 80% and the inhibition at 32 µM turned out to be 99%.
On to `c1ccc(CNc2ncnc3cc(OCC4CCN(CCNc5ccnc6ccccc56)CC4)ccc23)cc1` [Compound P, 4-(3-benzylamino)-7-((1-(2-(quinolin-4-ylamino)ethyl)piperidin-4-yl)methoxy)quinazoline], for which, in assay [1], the inhibition at 32 µM worked out at 26% and the inhibition at 100 µM was found to be 22%. Further, in assay [2], the inhibition at 10 µM stood at 43%, the inhibition at 32 µM came out at 81% and the EC50 came out at 13.1 µM.
Regarding `Cc1cc(NCCNc2ncnc3cc(OCC4CCN(CCNc5ccnc6ccccc56)CC4)ccc23)nc(N)n1` [Compound Q, 6-methyl-N^4-(2-((7-((1-(2-(quinolin-4-ylamino)ethyl)piperidin-4-yl)methoxy)quinazolin-4-yl)amino)ethyl)pyrimidine-2,4-diamine], in assay [1], the inhibition at 32 µM amounted to 74% and the inhibition at 100 µM was determined as 99.6%. Also, in assay [2], the inhibition at 10 µM was determined as 61%, the inhibition at 32 µM was 68% and a half-maximal response (EC50) required 5.7 µM.
Consider `O=c1c2ccc(OCC3CCN(CCNc4ccnc5ccccc45)CC3)cc2ncn1CCCc1ccccc1` [Compound R, 3-(3-phenylpropyl)-7-((1-(2-(quinolin-4-ylamino)ethyl)piperidin-4-yl)methoxy)quinazolinone], for which, in assay [1], the inhibition at 32 µM is 45% and the inhibition at 100 µM is 98.4%. Besides, in assay [2], the inhibition at 10 µM was found to be 65% and the inhibition at 32 µM was determined as 99%.
With `c1ccc(CCCNc2ncnc3cc(OCCNc4ccnc5ccccc45)ccc23)cc1` [Compound S, 4-(3-phenylpropylamino)-7-(2-(quinolin-4-ylamino)ethoxy)quinazoline], the inhibition at 100 µM in assay [1] came out at 90%. Moreover, in assay [2], the inhibition at 10 µM is 52% and the inhibition at 32 µM amounted to 95%.
